Square brackets hold non-standard residues; d marks the D form. Peptide text beside a SMILES is read from it. * marks the point of attachment. ξ: configuration not given here. PhAc = O=C(Cc1ccccc1)*; ξP = O=C(O)C1CCCN1
Columns and labels:
[1] = Phase I clinical trials, plasma concentration after oral administration; format: in vivo, human; details: oral administration of the 20 mg/day dose
Description: Fourteen healthy young volunteers were orally administered 20 mg/day of compound 2 for 28 days in two Phase I clinical trials. 34 patients with mild to moderate cognitive disturbance were orally administered doses of up to 30 mg/day of compound 2 for 28 days.
After oral administration of the 20 mg/day dose, peak plasma concentrations of 25-38 ng/mL were observed 15-30 minutes after dosing.

[2] = Preliminary study of oral bioavailability in four volunteers; format: in vivo; details: humans
[3] = system: patients with cognitive disturbances secondary to cerebrovascular and traumatic brain injury; test: Four-week open-label Phase II clinical trial of efficacy (MMSE, OCS, CCSE); format: in vivo, human; details: 10 mg orally t.i.d. for four weeks, 20 patients with mild cognitive disturbance
Description: The efficacy of 10 mg of compound 2 administered orally t.i.d. was investigated in a four-week open-label Phase II clinical trial at two centers. A total of 20 patients with cognitive disturbances secondary to cerebrovascular and traumatic brain injury were orally administered compound 2 during a Phase II clinical trial at a dose of 10 mg t.i.d. for a period of four weeks. At study entry, patients fulfilled specific criteria for mild cognitive disturbance.
Improvement on several tests, including the Mini Mental State Evaluation (MMSE) (Folstein et al., Psychiatric Research, 12, 189-198 (1975)), the Overall Clinical Impression Scale (OCS), which is a system developed by the National Institute of Mental Health: 12-CGI Clinical Global Impression ECDEU Assessment Manual for Psychopharmacology, E. Guyo, ed., Rockville Md., (217-222) (1976), and the Cognitive Capacity Screening Exam (CCSE) (Jacobs et al., Annals of Internal Medicine, 86, 40-46 (1977).

peak plasma concentrations [1]: 25 to 38 ng/mL
time of peak plasma concentrations after dosing [1]: 15 to 30 min
oral bioavailability [2]: orally bioavailable
Compound: CCOC(=O)CNC(=O)C1CCCN1C(=O)Cc1ccccc1 (stereo not shown) [compound 2] (PhAc-[ξP]-Gly-OEt)
treated patients who met the definition of efficacy response (statistically measured improvement in one or more of the tests by the end of the study) [3]: over 75%

Reference: US20020187977A1, “Methods for restoring cognitive function following systemic stress” (priority 2001, published 2002)
